Measured values from patent publication US8507411B2, “Neoglycorandomization and digitoxin analogs” (priority 2004, dated 2013).
Where two headings read alike, the source gives them in different places.

Experiments:
Hep3B = assay: High-throughput calcein AM cytotoxicity assay, Hep3B; assay type: cell-based, human; conditions: Hep 3B cells
Excerpt: (§1) Standard errors are depicted with error bars.

NCI-H460 = assay: High-throughput calcein AM cytotoxicity assay, NCI-H460; assay type: cell-based, human; conditions: NCI-H460 cells
Excerpt: as §1

Du145 = assay: High-throughput calcein AM cytotoxicity assay, Du145; assay type: cell-based, human; conditions: Du145 cells
Excerpt: as §1

MCF7 = assay: High-throughput calcein AM cytotoxicity assay, MCF7; assay type: cell-based, human; conditions: MCF7 cells
Excerpt: as §1

NCI/ADR-RES = assay: cells; assay type: cell-based, human; conditions: NCI/ADR-RES cells
Excerpt: (§2) In the assay, live cells were distinguished by the presence of a ubiquitous intracellular enzymatic activity which converts the non-fluorescent cell-permeable molecule calcein AM to the intensely fluorescent molecule calcein, which is retained within live cells. The IC50 value for each library member represents at least six replicates of dose-response experiments conducted over five concentrations using two-fold dilutions. […] Standard errors are depicted with error bars. Numerical values and corresponding error values can be found in Table 4. Du145: […]; MCF7: human breast carcinoma; HCT-116: human colon carcinoma, Hep3B: human liver carcinoma; SF-268: human CNS glioblastoma; SK-OV-3: human ovary adenocarcinoma; NCI-H460: human lung carcinoma; A549: human lung adenocarcinoma; NCI/ADR-RES: human breast carcinoma; NmuMG: mouse mammary normal epithelial.
(§3) Cell Culture: All cell lines except NmuMG were maintained in RPMI 1640 medium from InVitrogen (Cat No. 11875-085) supplemented with 10% w/v fetal bovine serum (FBS) from ICN (Cat No. 2916154) and penicillin-streptomycin (PS) (100 U/mL and 100 μg/mL) from InVitrogen (Cat No. 15140-122). NmuMG cells were maintained in DMEM medium from InVitrogen (Cat No. 11965-084) supplemented with 10% w/v fetal bovine serum (FBS) from ICN (Cat No. 2916154), 10 μg/ml insulin (InVitrogen Cat No 12585-014), and penicillin-streptomycin (PS) (100 U/mL and 100 μg/mL) from InVitrogen (Cat No. 15140-122). Cells were harvested by trypsinization using 0.25% w/v trypsin and 0.1% w/v EDTA from InVitrogen (Cat No. 15-050-057) and then counted in a hemocytometer in duplicate with better than 10% agreement in field counts. Cells were plated at a cell density of 10,000-15,000 cells/well of each Corning Costar 96-well black tissue culture treated microtiter plate (Fisher Cat No. 07-200-627). Cells were grown for 1 h at 37° C., with 5% CO2 in a humidified incubator to allow cell attachment to occur before compound addition.
(§4) Library Member Handling and Preparation for Cytotoxicity Assays: Library members were stored at −20° C. under dessicating conditions before the assay. Library member stocks (100×) were prepared in Corning Costar polypropylene 96-well V-bottom polypropylene microtiter plates (Fisher Cat No. 07-200-695). Five serial 1:2 dilutions were made with anhydrous DMSO at 100× the final concentration used in the assay.
(§5) Library Member Addition: The library member-containing plates were diluted 1:10 with complete cell culture media. The 10× stocks (10 μL) were added to the attached cells using a Biomek FX liquid handler (Beckman-Coulter). Library member stocks (10 μL) were added to 90 μL of cells in each plate to insure full mixing of stocks with culture media using a Beckman FX liquid handler with 96-well head.
(§6) Determination of Cytotoxicity: Cells were incubated with the library members for 72 h before fluorescence reading. Test plates were removed from the incubator and washed 1× in sterile PBS to remove serum containing calcium esterases. Calcein AM reagent (30 μL, […]) was added and the cells were incubated for 30 min at 37° C. Plates were read for emission using a fluorescein filter (excitation 485 nm, emission 535 nm).
(§7) IC50 Calculation: For each library member, at least six dose response experiments were conducted. […] To calculate IC50, percent inhibitions were plotted as a function of log [concentration] and then fit to a four-parameter logistic model that allowed for a variable Hill slope using XLfit 4.1.
(§8) Cytotoxicity Assays. All cell lines except NmuMG were maintained in RPMI 1640 medium supplemented with 10% w/v fetal bovine serum (FBS) and penicillin-streptomycin (PS) (100 U/mL and 100 μg/mL).

SK-OV-3 = assay: cells; assay type: cell-based, human; conditions: SK-OV-3 cells
Excerpt: as §2, §3, §4, §5, §6, §7, §8

SF-268 = assay: cells; assay type: cell-based, human; conditions: SF-268 cells
Excerpt: as §2, §3, §4, §5, §6, §7, §8

HCT-116 = assay: High-throughput calcein AM cytotoxicity assay, HCT-116; assay type: cell-based, human; conditions: HCT-116 cells
Excerpt: as §1

A549 = assay: High-throughput calcein AM cytotoxicity assay, A549; assay type: cell-based, human; conditions: A549 cells
Excerpt: as §1

NmuMG = assay: cells; assay type: cell-based, mouse
Excerpt: as §2, §3, §4, §5, §6, §7, §8

[1] = NmuMG cells (mouse mammary normal epithelial control line), read-out: IC50
[2] = NmuMG mouse mammary normal epithelial control line, read-out: IC50, NmuMG

Compound | IC50 (Hep3B; read-out: IC50, Hep 3B) | IC50 (NCI-H460; read-out: IC50, NCI-H460) | IC50 (Du145; read-out: IC50, Du145) | IC50 (MCF7; read-out: IC50, MCF7) | IC50 (NCI/ADR-RES; read-out: IC50, NCI/ADR-RES) | IC50 (SK-OV-3; read-out: IC50, SK-OV-3) | IC50 (SF-268; read-out: IC50, SF-268) | IC50 (HCT-116; read-out: IC50, HCT-116) | IC50 (A549; read-out: IC50, A549) | IC50 (NmuMG; [1]) | IC50 (NmuMG; [2]) | IC50 (Hep3B; read-out: IC50) | IC50 (NCI-H460; read-out: IC50) | IC50 (Du145; read-out: IC50) | IC50 (MCF7; read-out: IC50) | IC50 (NCI/ADR-RES; read-out: IC50) | IC50 (SK-OV-3; read-out: IC50) | IC50 (SF-268; read-out: IC50) | IC50 (HCT-116; read-out: IC50) | IC50 (A549; read-out: IC50)
CON(C1CCC2(C)C(CCC3C2CCC2(C)C(C4=CC(=O)OC4)CCC32O)C1)C1OC(CO)C(O)C(O)C1O [29α, D-idoside] | > 25 µM | > 25 µM | > 25 µM | > 25 µM | > 25 µM | > 25 µM | > 25 µM | > 25 µM | > 25 µM | > 25 µM | – | – | – | – | – | – | – | – | – | –
CON(C1CCC2(C)C(CCC3C2CCC2(C)C(C4=CC(=O)OC4)CCC32O)C1)C1OC(CO)C(O)C(O)C1F [12α, 2-deoxy-2-fluoro-D-glucoside] | > 25 µM | > 25 µM | > 25 µM | > 25 µM | > 25 µM | > 25 µM | > 25 µM | > 25 µM | > 25 µM | – | > 25 µM | – | – | – | – | – | – | – | – | –
6-keto-D-galactoside [31β] | 3.1 µM | 2.4 µM | 1.5 µM | 9 µM | 1 µM | 2.9 µM | 8 µM | 3.1 µM | 2.3 µM | – | > 25 µM | – | – | – | – | – | – | – | – | –
CON(C1CCC2(C)C(CCC3C2CCC2(C)C(C4=CC(=O)OC4)CCC32O)C1)C1OC(CO)C(O)CC1O [10α, 3-deoxy-D-glucoside] | > 25 µM | > 25 µM | > 25 µM | > 25 µM | > 25 µM | > 25 µM | > 25 µM | > 25 µM | > 25 µM | – | > 25 µM | – | – | – | – | – | – | – | – | –
CON(C1CCC2(C)C(CCC3C2CCC2(C)C(C4=CC(=O)OC4)CCC32O)C1)C1CC(O)C(O)C(CO)O1 [9α, 2-deoxy-D-galactoside] | > 25 µM | > 25 µM | > 25 µM | > 25 µM | > 25 µM | > 25 µM | > 25 µM | > 25 µM | > 25 µM | – | > 25 µM | – | – | – | – | – | – | – | – | –
CON([C@H]1CC[C@@]2(C)[C@H](CC[C@@H]3[C@@H]2CC[C@]2(C)[C@@H](C4=CC(=O)OC4)CC[C@]32O)C1)[C@H]1O[C@@H](CO)[C@@H](O)[C@H](O)[C@H]1O [28β, L-idoside] | 1 µM | 1.3 µM | 1.9 µM | 2.6 µM | 0.61 µM | 2.4 µM | 2.1 µM | 3.2 µM | 1.14 µM | – | 1.8 µM | – | – | – | – | – | – | – | – | –
CON(C1CCC2(C)C(CCC3C2CCC2(C)C(C4=CC(=O)OC4)CCC32O)C1)C1OC(COC2OC(CO)C(O)C(O)C2O)C(O)C(O)C1O (stereo not drawn) [35α, melibioside] | – | – | – | – | – | – | – | – | – | > 25 µM | – | > 25 µM | > 25 µM | > 25 µM | > 25 µM | > 25 µM | > 25 µM | > 25 µM | > 25 µM | > 25 µM
CON(C1CCC2(C)C(CCC3C2CCC2(C)C(C4=CC(=O)OC4)CCC32O)C1)C1OCC(O)C(O)C1O [14α, L-lyxoside] | > 25 µM | > 25 µM | > 25 µM | > 25 µM | > 25 µM | > 25 µM | > 25 µM | > 25 µM | > 25 µM | – | > 25 µM | – | – | – | – | – | – | – | – | –
CON(C1CCC2(C)C(CCC3C2CCC2(C)C(C4=CC(=O)OC4)CCC32O)C1)C1OC(CO)C(OC2OC(CO)C(O)C(O)C2O)C(O)C1O (stereo not drawn) [36β, lactoside] | 26 µM | > 25 µM | – | > 25 µM | 13 µM | 19 µM | > 25 µM | > 25 µM | 24 µM | – | > 25 µM | – | – | – | – | – | – | – | – | –
CON(C1CCC2(C)C(CCC3C2CCC2(C)C(C4=CC(=O)OC4)CCC32O)C1)C1OC(CO)C(OC2OC(CO)C(O)C(O)C2O)C(O)C1O (stereo not drawn) [37β, maltoside] | 7 µM | 6.1 µM | 4.4 µM | > 25 µM | 4.4 µM | 5 µM | 6 µM | 24 µM | 4.4 µM | – | – | – | – | – | – | – | – | – | – | –
CON(C1CCC2(C)C(CCC3C2CCC2(C)C(C4=CC(=O)OC4)CCC32O)C1)C1OCC(O)C(O)C1O [24α, D-xyloside] | > 25 µM | > 25 µM | > 25 µM | > 25 µM | – | – | – | > 25 µM | > 25 µM | – | – | – | – | – | – | – | – | – | – | –
CON(C1CCC2(C)C(CCC3C2CCC2(C)C(C4=CC(=O)OC4)CCC32O)C1)C1OC(CO)C(OC2OC(CO)C(O)C(O)C2O)C(O)C1O (stereo not drawn) [37α, maltoside] | – | – | – | – | – | – | – | – | – | > 25 µM | – | > 25 µM | – | > 25 µM | – | > 25 µM | > 25 µM | – | – | > 25 µM
CON(C1CCC2(C)C(CCC3C2CCC2(C)C(C4=CC(=O)OC4)CCC32O)C1)C1OCC(O)C(O)C1O [23α, L-xyloside] | > 25 µM | > 25 µM | > 25 µM | > 25 µM | – | – | – | > 25 µM | > 25 µM | – | – | – | – | – | – | – | – | – | – | –
